Key:
[1] = system: Hep3B, Huh7, and PLC5 cells; assay: ROS production by flow cytometry with DCFDA; format: cell-based; conditions: 1 h of treatment
Protocol: Flow cytometry. For assessment of apoptosis, treated cells were stained with Annexin V-Alexa Fluor 488 and propidium iodide according to the vendor's protocols (Molecular Probes). For caspase-3 activity, cells were incubated with the fluorogenic caspase-3 substrate (Ac-DMQD)-2-Rh110 for 20 min. ROS production was detected using the fluorescence probe 5-(and-6)-carboxy-2′,7′-dichlorodihydrofluorescein diacetate (DCFDA) as described. Hung et al., Cancer Res., 68, 1204-1212 (2008). Data were analyzed by ModFitLT V3.0 software program.

human recombinant SphK2 = biological target: T1, human recombinant SphK2 (Homo sapiens, UniProt Q9NRA0); assay: Phosphorylation of FTY720 and OSU-2S by SphK2 (radiometric, TLC); format: biochemical; conditions: 5 μM compound, [γ-32P]-ATP, 37° C., 60 min, TLC/autoradiography
T1 construct: purchased Cayman
T1 sequence (Q9NRA0 1-654): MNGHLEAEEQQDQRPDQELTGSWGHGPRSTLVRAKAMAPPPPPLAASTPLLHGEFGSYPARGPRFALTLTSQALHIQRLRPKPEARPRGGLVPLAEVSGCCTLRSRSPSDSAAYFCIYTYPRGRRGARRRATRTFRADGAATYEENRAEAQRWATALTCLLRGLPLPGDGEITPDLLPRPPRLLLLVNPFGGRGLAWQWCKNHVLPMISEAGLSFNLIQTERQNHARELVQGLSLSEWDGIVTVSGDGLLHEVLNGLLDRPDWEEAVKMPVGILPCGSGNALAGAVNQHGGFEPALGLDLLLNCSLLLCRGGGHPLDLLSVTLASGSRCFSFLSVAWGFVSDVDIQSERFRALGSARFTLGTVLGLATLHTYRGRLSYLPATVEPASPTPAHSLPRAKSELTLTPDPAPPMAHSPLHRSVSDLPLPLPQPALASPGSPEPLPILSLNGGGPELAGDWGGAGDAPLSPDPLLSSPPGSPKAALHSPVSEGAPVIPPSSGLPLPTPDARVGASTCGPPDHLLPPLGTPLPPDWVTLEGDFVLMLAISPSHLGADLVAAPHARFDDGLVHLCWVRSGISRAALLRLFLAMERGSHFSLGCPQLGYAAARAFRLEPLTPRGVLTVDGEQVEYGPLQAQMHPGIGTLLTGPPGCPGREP
Protocol: Phosphorylation of FTY720 and OSU-2S by SphK2. Analysis of SphK2-mediated phosphorylation was performed as reported with modifications. Prieschl […] J Exp Med, 190, 1-8 (1999). Briefly, 5 μM FTY720 or OSU-2S was incubated with 0.75 μg/ml human recombinant SphK2 (Cayman), 5 μCi [γ-^32P]-ATP, and 0.5 mM cold ATP at 37° C. for 60 min. The reaction products were separated by silica-gel thin layer chromatography (TLC) and visualized by autoradiography.

CLL cells = assay: ROS induction in CLL cells (dihydroethidium staining); format: cell-based; conditions: 8 μM, untreated about 40%
Protocol: The induction of Reactive Oxygen Species (ROS) in CLL cells by OSU-2S was detected by staining OSU-2S 8 μM treated CLL cells with dihyroethidium. The ROS in the cells oxidizes DHE to ethidium staining the nucleus with a bright red fluorescence detected by flow cytometer. A hydrogen peroxide solution was used as a control.

[2] = system: subcutaneous Hep3B tumors; assay: Ectopic (subcutaneous) Hep3B xenograft tumor model; format: in vivo, athymic nude mice
Protocol: Xenograft tumor models. Ectopic tumors were established in athymic nude mice by subcutaneous injection of 1×10^6 Hep3B cells in a total volume of 0.1 ml of serum-free medium containing 50% Matrigel. Mice with established tumors were randomized to five groups (n=8) that received daily i.p. injections of OSU-2S or FTY720 at 5 or 10 mg/kg, or the vehicle. Tumor burdens were determined weekly using calipers (volume=width^2×length×0.52). Body weights were measured weekly. At the study endpoint, tumors were harvested, snap-frozen and stored at −80° C. for biomarker analysis. Blood and tissues were collected for evaluation of complete blood counts, serum chemistry and histopathology.

[3] = system: PTEN, p53, Mcl-1 in Huh7 cells; assay: Western blot of signaling markers in drug-treated Huh7 cells; format: cell-based; conditions: 24 h
Protocol: Immunoblotting. Immunoblotting of biomarkers in cell lysates and tumor tissue homogenates was carried out according to a published procedure. Hung et al., Cancer Res., 68, 1204-1212 (2008).

primary CLL cells = assay: Cytotoxicity in primary CLL cells (Annexin V / propidium iodide flow cytometry); format: cell-based
Protocol: Antitumor and other effects of OSU-2S were also evaluated in Chronic Lymphoid Leukemia cells. OSU-2S cytotoxicity in primary CLL cells is measured at 24 hrs by staining for Annexin V and Propidium Iodide using Flow cytometer. The number of live cells (stained negative for both the stains) were normalized to untreated control. Fludarabine metabolite (2-Fara) was used as a control.
The effect of OSU-2S was evaluated in 3 different CLL cell lines (WROTH<THOU, and RAHUE) over a 24 hour period, as shown in FIG. 9. Time dependent OSU-2S cytotoxicity in primary CLL cells was measured by treating the cells with OSU-2S (8 μM) for indicated period of time and washed and cultured in the fresh media for 24 hr. The number of live cells stained negative for Annexin V and Propidium Iodide were measured at 24 hrs by using Flowcytometer and normalized to untreated control.
CD37 activation and OSU-2S produced enhanced cytotoxicity in CLL cells, as detected by flow cytometer at 24 hr. in CLL cells treated with CD37 antibody and cross linker or OSU-2S 8 μM or with both are stained for Annexin V and propidium iodide at 24 hr.

[4] = biological target: T2, S1P1 receptor-overexpressing Huh7 cells (Homo sapiens, UniProt P21453); assay: Immunocytochemical analysis of S1P1 receptor internalization; format: cell-based; conditions: immunocytochemistry
T2 construct: expressed in transfected cells
T2 sequence (P21453 whole entry): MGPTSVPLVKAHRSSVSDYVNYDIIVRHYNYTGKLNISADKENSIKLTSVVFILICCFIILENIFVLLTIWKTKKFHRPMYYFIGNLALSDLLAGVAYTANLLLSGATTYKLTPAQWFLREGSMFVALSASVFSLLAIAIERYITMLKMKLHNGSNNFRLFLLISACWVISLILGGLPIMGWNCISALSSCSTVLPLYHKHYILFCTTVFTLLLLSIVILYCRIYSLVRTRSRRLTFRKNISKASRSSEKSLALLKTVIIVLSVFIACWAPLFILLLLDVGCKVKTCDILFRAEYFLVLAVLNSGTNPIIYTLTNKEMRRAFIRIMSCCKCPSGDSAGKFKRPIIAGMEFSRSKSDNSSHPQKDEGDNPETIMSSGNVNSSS
Protocol: Immunocytochemistry. Immunocytochemical analysis of S1P1 internalization and PKCδ nuclear translocation were performed as described. […] Briefly, treated cells were washed, fixed with 4% paraformaldehyde, and permeabilized with 0.1% Triton X-100. After blocking with 2% FBS, cells were incubated with rabbit anti-S1P1 or rabbit anti-PKCδ antibodies (1:200 dilution, 4° C., 24 h), followed by Alexa Fluor 488-conjugated goat anti-rabbit IgG (room temperature, 1 h). Nuclei were counterstained with a 4,6-diamidino-2-phenylindole (DAPI)-containing mounting medium (Vector Laboratories, Burlingame, Calif.).

[5] = biological target: T2, S1P1 receptor-overexpressing Huh7 cells; assay: Cell viability in stable S1P1 receptor transfectants; format: cell-based; conditions: two stable S1P1 clones vs wild-type Huh7
Protocol: Cell viability assay. Cell viability was assessed by 3-(4,5-dimethylthiazol-2-yl)-2,5-diphenyl-2H-tetrazolium bromide (MTT) assays in six replicates. Cells were seeded (4,000 cells/well; 96-well plate) for 24 h and treated with test agents in 5% FBS-supplemented DMEM. After treatment, cells were incubated in medium containing 0.5 mg/ml MTT (37° C., 2 h). Reduced MTT was dissolved in DMSO (200 μL/well) and absorbances measured at 570 nm.
Overexpression of S1P1 Receptors. Huh7 or Hep3B cells were transfected with plasmids encoding S1PR1, Flag-tagged GST-π or hemagglutinin (HA)-tagged, CA-Akt. The corresponding empty vectors were used as controls. Stable clones were selected over 3 weeks by geneticin, and the expression of cloned proteins was confirmed by Western blotting.

Compound: CCC[C@@](N)(CO)CCc1ccc(OCCCCCC(C)C)cc1 [OSU-2S, (S)-2-amino-2-(4-[(6-methylheptyl)-oxy]phenethyl)pentan-1-ol]
- ROS production [1]: to a greater extent than FTY720
- phosphorylation by recombinant SphK2 (human recombinant SphK2): not phosphorylated
- DHE positive cell % (CLL cells): about 70%
- ectopic Hep3B tumor growth vs vehicle control ([2]; 5 mg/kg, i.p. once daily, P<0.001): completely suppressed
- reduction of tumor volume ([2]; 10 mg/kg i.p. daily, end of 42-day treatment): more than 50%
- intratumoral biomarkers of drug activity ([2]; Hep3B tumor tissue homogenates, Western blot): PKCδ and caspase-3 were activated
- effect on expression levels of PTEN, p53, or Mcl-1 [3]: neither OSU-2S nor FTY720 had an appreciable effect
- time dependent cytotoxicity (primary CLL cells; 8 μM for indicated time, washed, cultured 24 hr, 3 CLL cell lines): decreased number live cells over time
- live cells (negative for Annexin V and propidium iodide) (primary CLL cells; CLL cells, 24 hr, OSU-2S 8 μM and/or CD37 antibody and cross linker): about 30%
- growth (live cells normalized to untreated control) (primary CLL cells; primary CLL cells, 24 hrs, OSU-2S at 8 μM): about 30%
- S1P1 receptor internalization and clustering in the cytoplasm [4]: failed to show any appreciable effect
- effect of S1P1 receptor overexpression on antiproliferative activity [5]: no protective effect
